Reference: paper PMC6983109, “Efficient Synthesis of Purine Nucleoside Analogs by a New Trimeric Purine Nucleoside Phosphorylase from Aneurinibacillus migulanus AM007” (Molecules, 2019)

Assays:
AmPNP = target: T1, AmPNP (Aneurinibacillus migulanus, UniProt A0A3G5E8S8); test: phosphorolysis, HPLC; format: biochemical; conditions: 10 mM sodium phosphate buffer pH 8.0 (phosphate co-substrate), 50 °C, 0.5–5 mM substrate
T1 construct: full-length ORF 813 bp, 270 residues; N-terminal 6*His tag (pET-28a(+), Nhe I/BamH I), E. coli BL21(DE3), Ni2+ purified; subunit ~29 kDa, native ~87 kDa, trimer
Excerpt: phosphorolysis, HPLC on AmPNP

[1] = target: purine nucleoside phosphorylase from Aneurinibacillus migulanus AM007 (Aneurinibacillus migulanus AM007); test: SEC; Superdex 200 Increase 10/300 GL on an AKTA pure system, against standard proteins; 0.01 M phosphate buffer, 0.14 M NaCl, pH 8.0; AmPNP at 2 mg/mL; 0.3 mL/min; native mass about 87 kDa compared with about 29 kDa subunit on SDS-PAGE

Compound	Km (AmPNP) [µM]	stoichiometry N [1]
Nc1ncnc2c1ncn2[C@@H]1O[C@H](CO)[C@@H](O)[C@H]1O [Adenosine]	1450	
Nc1nc2c(ncn2[C@@H]2O[C@H](CO)[C@@H](O)[C@H]2O)c(=O)[nH]1 [Guanosine]	1160	
OC[C@H]1O[C@@H](n2cnc3c(O)ncnc32)[C@H](O)[C@@H]1O [Inosine]	5300	
purine nucleoside phosphorylase from Aneurinibacillus migulanus AM007 (enzyme)		3
